Experimental data: the supplement of paper PMC4862054

What was measured:
[1] = tested on: DU-4475; settings: 72 h
In short: (§1)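 EC50 was fitted from dose-response curves and censored at the highest concentration tested. To build those curves, breast cancer cell lines (20 µl suspension) were seeded into 384-well plates containing compound at 5 concentrations in 10-fold steps over a compound-specific 10,000-fold range and incubated for 72 h. Readouts were CellTox Green fluorescence (485/520 nm) for cell death and then CellTiter-Glo luminescence for viability, with each plate normalised to 0.1 % DMSO and a positive kill control.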

[2] = tested on: MCF-10A; settings: 72 h
In short: as §1

[3] = tested on: BT-474; settings: 72 h
In short: as §1

[4] = tested on: HDQ-P1; settings: 72 h
In short: as §1

[5] = tested on: Hs578T; settings: 72 h
In short: as §1

[6] = tested on: MFM-223; settings: 72 h
In short: as §1

[7] = tested on: CAL-85-1; settings: 72 h
In short: as §1

[8] = tested on: CAL-120; settings: 72 h
In short: as §1

[9] = tested on: HCC1143; settings: 72 h
In short: as §1

[10] = tested on: SK-BR-3; settings: 72 h
In short: as §1

[11] = tested on: CAL-51; settings: 72 h
In short: as §1

[12] = tested on: MDA-MB-436; settings: 72 h
In short: as §1

[13] = tested on: CAL-148; settings: 72 h
In short: as §1

[14] = tested on: BT-549; settings: 72 h
In short: as §1

[15] = tested on: MDA-MB-231; settings: 72 h
In short: as §1

[16] = tested on: HCC1599; settings: 72 h
In short: as §1

[17] = tested on: MDA-MB-453; settings: 72 h
In short: as §1

[18] = tested on: MDA-MB-468; settings: 72 h
In short: as §1

[19] = tested on: MDA-MB-453; test: drug sensitivity score (DSS), CellTox Green (DSS (AUC-based score)); higher = stronger drug effect (viability inhibition or cytotoxicity); extreme values may be limits of the assay; settings: incubation time: 72 h
In short: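 Breast cancer cell lines were seeded in 20 µl suspension into 384-well plates already holding compound and incubated for 72 h. Each compound was tested at 5 concentrations in 10-fold steps across its own 10,000-fold range. Plates were normalised to 0.1 % DMSO and a positive kill control after CellTox Green and then CellTiter-Glo readings. The area under the fitted dose-response curve served as the basis for the drug sensitivity score.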

[20] = tested on: MCF-10A; settings: 72 h; remark: listed apart in the source
Experimental: (§2)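 Drug sensitivity and resistance testing (DSRT) of breast cancer cell lines in 384-well plates, 5 concentrations in 10-fold dilutions over a compound-specific 10,000-fold range. After 72 h, cytotoxicity was read by CellTox Green fluorescence and viability by CellTiter-Glo luminescence (multiplexed), normalised to DMSO and benzethonium chloride controls. EC50 is the inflection point of the fitted dose-response curve (bottom asymptote free, so it can be relative for partial curves) and is censored at the highest tested concentration. Rows with DSS 0 (no meaningful response) were excluded.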

[21] = tested on: Hs578T; settings: 72 h; remark: listed apart in the source
Experimental: as §2

[22] = tested on: MFM-223; settings: 72 h; remark: listed apart in the source
Experimental: as §2

[23] = tested on: CAL-85-1; settings: 72 h; remark: listed apart in the source
Experimental: as §2

[24] = tested on: CAL-120; settings: 72 h; remark: listed apart in the source
Experimental: as §2

[25] = tested on: CAL-51; settings: 72 h; remark: listed apart in the source
Experimental: as §2

[26] = tested on: MDA-MB-231; settings: 72 h; remark: listed apart in the source
Experimental: as §2

[27] = tested on: Hs578T; settings: 72 h; remark: listed apart in the source
In short: (§3)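 Plates of 384 wells holding compound in 5 µl medium received breast cancer cell lines in 20 µl suspension and were incubated 72 h. CellTiter-Blue (2.5 µl, 2 h, 37 °C) was used for viability, read at 560/590 nm, and every plate was normalised to vehicle and a positive kill control and assessed by Z'-factor. The EC50 derives from a percent-inhibition dose-response curve fit censored at the highest concentration, leaving out rows whose drug sensitivity score was zero.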

[28] = tested on: MFM-223; settings: 72 h; remark: listed apart in the source
In short: as §3

[29] = tested on: CAL-120; settings: 72 h; remark: listed apart in the source
In short: as §3

[30] = tested on: HCC1143; settings: 72 h; remark: listed apart in the source
In short: as §3

[31] = tested on: SK-BR-3; settings: 72 h; remark: listed apart in the source
In short: as §3

[32] = tested on: MDA-MB-436; settings: 72 h; remark: listed apart in the source
In short: as §3

[33] = tested on: BT-549; settings: 72 h; remark: listed apart in the source
In short: as §3

[34] = tested on: MDA-MB-231; settings: 72 h; remark: listed apart in the source
In short: as §3

[35] = tested on: HCC1937; settings: 72 h
In short: as §3

[36] = tested on: MDA-MB-468; settings: 72 h; remark: listed apart in the source
In short: as §3

[37] = tested on: DU-4475; settings: 72 h; remark: listed apart in the source
In short: as §3

[38] = tested on: HDQ-P1; settings: 72 h; remark: listed apart in the source
In short: as §3

[39] = tested on: CAL-85-1; settings: 72 h; remark: listed apart in the source
In short: as §3

[40] = tested on: CAL-51; settings: 72 h; remark: listed apart in the source
In short: as §3

[41] = tested on: CAL-148; settings: 72 h; remark: listed apart in the source
In short: as §3

[42] = tested on: MDA-MB-453; settings: 72 h; remark: listed apart in the source
In short: as §3

[43] = tested on: HCC1599; settings: 72 h; remark: listed apart in the source
In short: as §3

CC[C@@H]1C(=O)N(C)c2cnc(Nc3ccc(C(=O)NC4CCN(C)CC4)cc3OC)nc2N1C1CCCC1 [BI 2536]
EC50, CellTiter-Glo [1]: 10.2 nM | EC50, CellTiter-Glo [2]: 34 nM | EC50, CellTiter-Glo [3]: 6.44 nM | EC50, CellTiter-Glo [4]: 21.4 nM | EC50, CellTiter-Glo [5]: 31.6 nM | EC50, CellTiter-Glo [6]: 2.27 nM | EC50, CellTiter-Glo [7]: 2.42 nM | EC50, CellTiter-Glo [8]: 5.9 nM | EC50, CellTiter-Glo [9]: 6.01 nM | EC50, CellTiter-Glo [10]: 2.39 nM | EC50, CellTiter-Glo [11]: 10.9 nM | EC50, CellTiter-Glo [12]: 2.44 nM | EC50, CellTiter-Glo [13]: 3.14 nM | EC50, CellTiter-Glo [14]: 4.82 nM | EC50, CellTiter-Glo [15]: 2.75 nM | EC50, CellTiter-Glo [16]: 37.2 nM | EC50, CellTiter-Glo [17]: 2.55 nM | EC50, CellTiter-Glo [18]: 2.04 nM | drug sensitivity score [19]: 0 | EC50, CellTox Green [20]: 2.65 nM | EC50, CellTox Green [21]: 419 nM | EC50, CellTox Green [22]: 2.41 nM | EC50, CellTox Green [23]: 24.1 nM | EC50, CellTox Green [24]: 120 nM | EC50, CellTox Green [25]: 5.72 nM | EC50, CellTox Green [26]: 2.26 nM | EC50, CellTiter-Blue viability [27]: 10.5 nM | EC50, CellTiter-Blue viability [28]: 1.57 nM | EC50, CellTiter-Blue viability [29]: 3.52 nM | EC50, CellTiter-Blue viability [30]: 6.32 nM | EC50, CellTiter-Blue viability [31]: 2.63 nM | EC50, CellTiter-Blue viability [32]: 3.72 nM | EC50, CellTiter-Blue viability [33]: 1.56 nM | EC50, CellTiter-Blue viability [34]: 5.71 nM | EC50, CellTiter-Blue viability [35]: 3.79 nM | EC50, CellTiter-Blue viability [36]: 3.48 nM | EC50, CellTiter-Blue viability [37]: 6.01 nM | EC50, CellTiter-Blue viability [38]: > 1000 nM | EC50, CellTiter-Blue viability [39]: 2.85 nM | EC50, CellTiter-Blue viability [40]: 12.5 nM | EC50, CellTiter-Blue viability [41]: 4.74 nM | EC50, CellTiter-Blue viability [42]: 2.09 nM

NCCCNCCSP(=O)(O)O [Amifostine]
EC50, CellTiter-Blue viability [43]: 224 nM
